“And” between values parts separate entries of the source, which are not always exact repeats. Identical values can stand only once. Like-named read-outs stand apart in the source and are kept apart here.
Assays:
OR9/ORco = OR9/ORco (Anopheles gambiae, UniProt A0ABK8FPD1+Q7QCC7); format: cell-based
OR1/ORco [1] = target: T1, OR1/ORco (Anopheles gambiae, UniProt Q7QCC7+Q8WTE7); test: Photina Ca2+ bioluminescence assay in Hi5 cells expressing OR1/ORco; format: cell-based; details: for EC50: OR1+ORco, agonist alone
T1 construct: expressed in transfected cells; host or cells: Trichoplusia ni BTI-Tn 5B1-4 HighFive (Hi5) cells, transient transfection with pEIA plasmids
T1 sequence (Q8WTE7 1-417): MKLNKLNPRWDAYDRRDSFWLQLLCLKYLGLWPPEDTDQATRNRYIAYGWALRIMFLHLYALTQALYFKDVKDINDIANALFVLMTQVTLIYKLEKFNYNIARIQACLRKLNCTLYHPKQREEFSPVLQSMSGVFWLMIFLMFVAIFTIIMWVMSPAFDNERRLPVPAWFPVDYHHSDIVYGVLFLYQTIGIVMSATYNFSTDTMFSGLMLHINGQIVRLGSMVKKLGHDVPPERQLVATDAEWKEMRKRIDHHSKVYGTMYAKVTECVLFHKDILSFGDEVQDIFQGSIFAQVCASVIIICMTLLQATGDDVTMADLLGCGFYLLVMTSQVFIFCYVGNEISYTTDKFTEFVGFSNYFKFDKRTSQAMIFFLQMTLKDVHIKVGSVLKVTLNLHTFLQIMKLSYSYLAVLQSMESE
T1 sequence (Q7QCC7 1-478): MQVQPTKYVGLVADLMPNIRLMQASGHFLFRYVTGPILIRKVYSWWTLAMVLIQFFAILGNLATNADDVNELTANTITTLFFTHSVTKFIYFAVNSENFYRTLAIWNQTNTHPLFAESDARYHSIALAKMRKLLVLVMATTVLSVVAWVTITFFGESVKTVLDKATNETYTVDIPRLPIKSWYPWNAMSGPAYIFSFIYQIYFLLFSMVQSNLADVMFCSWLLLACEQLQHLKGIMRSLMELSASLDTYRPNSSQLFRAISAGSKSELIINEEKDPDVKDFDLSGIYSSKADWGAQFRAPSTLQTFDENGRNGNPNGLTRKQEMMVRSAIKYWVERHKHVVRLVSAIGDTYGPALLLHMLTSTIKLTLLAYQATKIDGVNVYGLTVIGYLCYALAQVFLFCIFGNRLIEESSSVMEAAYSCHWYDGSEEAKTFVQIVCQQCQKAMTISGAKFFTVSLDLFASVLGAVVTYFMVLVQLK

OR53/ORco = OR53/ORco (Anopheles gambiae, UniProt A0ABK8FS74+Q7QCC7); format: cell-based
OR53/ORco, sequence (A0ABK8FS74 entry or part of it, one chain of several): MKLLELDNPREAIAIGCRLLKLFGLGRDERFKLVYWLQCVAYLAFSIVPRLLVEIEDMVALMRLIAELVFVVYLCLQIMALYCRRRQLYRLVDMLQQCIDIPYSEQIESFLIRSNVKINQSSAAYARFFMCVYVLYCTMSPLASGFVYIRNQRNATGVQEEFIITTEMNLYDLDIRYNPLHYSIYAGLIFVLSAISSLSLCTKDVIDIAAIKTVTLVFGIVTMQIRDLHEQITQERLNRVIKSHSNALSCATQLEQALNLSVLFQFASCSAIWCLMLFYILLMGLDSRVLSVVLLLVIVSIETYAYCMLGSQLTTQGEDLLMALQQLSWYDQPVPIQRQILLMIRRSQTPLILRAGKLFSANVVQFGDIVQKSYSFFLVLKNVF

OR2/ORco [2] = target: T2, OR2/ORco (Anopheles gambiae, UniProt Q7QCC7+Q8WTE6); test: Photina Ca2+ bioluminescence assay in Hi5 cells expressing OR2/ORco; format: cell-based; details: for EC50: OR2+ORco, agonist alone
T2 construct: expressed in transfected cells; host or cells: Trichoplusia ni BTI-Tn 5B1-4 HighFive (Hi5) cells, transient transfection with pEIA plasmids
T2 sequence (Q8WTE6 1-378): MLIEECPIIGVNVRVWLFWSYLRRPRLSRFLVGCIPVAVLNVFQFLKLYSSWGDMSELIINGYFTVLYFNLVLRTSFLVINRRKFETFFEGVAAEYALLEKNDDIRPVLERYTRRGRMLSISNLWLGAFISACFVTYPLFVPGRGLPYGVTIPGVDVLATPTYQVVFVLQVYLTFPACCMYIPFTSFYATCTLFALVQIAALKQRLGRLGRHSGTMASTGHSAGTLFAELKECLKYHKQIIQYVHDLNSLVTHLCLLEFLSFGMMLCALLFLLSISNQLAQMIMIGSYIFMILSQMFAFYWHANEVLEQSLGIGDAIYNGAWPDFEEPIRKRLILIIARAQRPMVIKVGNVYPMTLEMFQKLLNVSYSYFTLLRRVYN
T2 sequence (Q7QCC7 1-478): T1 sequence (Q7QCC7 1-478)

ORco [3] = target: T3, ORco (Anopheles gambiae, UniProt Q7QCC7); parameters: method as in Tsitoura et al., 2015; details: ORco homomer; ref Tsitoura et al., 2015; cited from earlier work
T3 construct: expressed in transfected cells; host or cells: Trichoplusia ni BTI-Tn 5B1-4 HighFive (Hi5) cells, transient transfection with pEIA.ORco and pEIA.Photina
T3 sequence (Q7QCC7 1-478): T1 sequence (Q7QCC7 1-478)

ORco [4] = target: T3, ORco; test: Photina Ca2+ bioluminescence assay in Hi5 cells expressing ORco alone; format: cell-based; details: ORco homomer
OR1/ORco [5] = target: T1, OR1/ORco; parameters: method as in Tsitoura et al., 2015; details: agonist alone, ref Tsitoura et al., 2015; cited from earlier work
OR2/ORco [6] = target: T2, OR2/ORco; parameters: method as in Tsitoura et al., 2015; details: agonist alone, ref Tsitoura et al., 2015; cited from earlier work
[7] = from the fitted dose-response curve, odorant alone

OR9/ORco, sequence (A0ABK8FPD1 entry or part of it, one chain of several): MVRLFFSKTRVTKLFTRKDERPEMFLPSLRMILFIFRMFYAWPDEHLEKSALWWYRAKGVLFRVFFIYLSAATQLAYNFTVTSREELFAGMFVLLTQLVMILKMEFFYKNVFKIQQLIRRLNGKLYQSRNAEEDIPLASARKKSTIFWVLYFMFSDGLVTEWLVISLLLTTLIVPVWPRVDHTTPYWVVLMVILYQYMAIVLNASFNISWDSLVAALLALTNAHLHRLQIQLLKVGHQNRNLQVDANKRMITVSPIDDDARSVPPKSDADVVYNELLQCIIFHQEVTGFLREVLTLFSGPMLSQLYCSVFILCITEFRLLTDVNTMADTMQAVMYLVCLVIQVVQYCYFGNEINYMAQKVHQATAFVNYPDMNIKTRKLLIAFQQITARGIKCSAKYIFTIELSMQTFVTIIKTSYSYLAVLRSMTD

CCc1ccccc1O [2EP, 2-Ethylphenol]
Concentration of the odorant at EC20 (OR9/ORco): 35 µM | Functional response of receptor to odorant (OR9/ORco): responded | EC50 (OR9/ORco; OR9+ORco, agonist alone): 77.6 µM | pEC50 ± SE (OR9/ORco; OR9+ORco, agonist alone): 4.110 ± 0.009062 | EC50 (OR9/ORco; OR9+ORco, agonist alone, listed as 2-ethylphenol): ~78 µM

CCc1ccc(NC(=O)CSc2nnc(-c3ccncc3)n2CC)cc1 [OA, N-(4-ethylphenyl)-2-((4-ethyl-5-(4-pyridinyl)-4H-1,2,4-triazol-3-yl)thio)acetamide]
Potentiation magnitude at EC20 of odorant (OR9/ORco): ~ 10 fold | Relative efficacy# (relative to 100 µM ORx-specific odorant) (OR9/ORco): 10.4 fold | Relative efficacy* (relative to ORco) (OR9/ORco): 1,05 fold | Relative efficacy§ (potentiation relative to 100 µM ORx-specific odorant) (OR9/ORco): 4.94 fold | Relative efficacy§ (relative to 100 µM ORx-specific odorant) (OR9/ORco): 0.05 fold | EC50 (OR9/ORco; read-out: EC50): 79 µM and 78.7 µM | Potentiation magnitude at EC20 of odorant (OR1/ORco [1]; 10 µM OA (ORcoRAM2), 4MP at EC20 (427nM)): ~ 93 fold | Relative efficacy§ (relative to 100 µM ORx-specific odorant) (OR1/ORco [1]; 10 µM ORcoRAM2 alone vs 100 µM 4MP, Figure 3A): 2.88 fold | Relative efficacy§ (potentiation relative to 100 µM ORx-specific odorant) (OR1/ORco [1]; 10 µM ORcoRAM2 together with 100 µM 4MP vs 100 µM 4MP alone, Figure 3A): 32.45 fold | Relative efficacy# (relative to 100 µM ORx-specific odorant) (OR1/ORco [1]; 100 µM ORcoRAM2 alone vs 100 µM 4MP, Figure 1C): 10,22 fold | EC50 (OR1/ORco [1]): 57 µM and 56.6 µM | Relative efficacy* (relative to ORco) (OR53/ORco): 3.87 fold | Relative efficacy§ (potentiation relative to 100 µM ORx-specific odorant) (OR53/ORco): 140.85 fold and 140 fold and 141 fold | Relative efficacy§ (relative to 100 µM ORx-specific odorant) (OR53/ORco): 16.3 fold | EC50 (OR53/ORco; read-out: EC50): 57 µM and 56.6 µM | Potentiation magnitude at EC20 of odorant (OR2/ORco [2]): ~ 53 fold | Relative efficacy§ (relative to 100 µM ORx-specific odorant) (OR2/ORco [2]; 10 µM ORcoRAM2 alone vs 100 µM IN, Figure 3A): 0.57 fold | Relative efficacy§ (potentiation relative to 100 µM ORx-specific odorant) (OR2/ORco [2]; 10 µM ORcoRAM2 together with 100 µM IN vs 100 µM IN alone, Figure 3A): 8.09 fold | Relative efficacy* (relative to ORco) (OR2/ORco [2]; 100 µM ORcoRAM2, no odorant, OR2/ORco vs ORco homomer, Figure 1A): 3.2 fold | Relative efficacy# (relative to 100 µM ORx-specific odorant) (OR2/ORco [2]; 100 µM ORcoRAM2 alone vs 100 µM IN, Figure 1C): 6.22 fold | EC50 (OR2/ORco [2]): 44 µM and 43.6 µM | EC50 (ORco [3]): 59 µM and 58.9 µM | EC50 (ORco [4]): 97 µM and 96.6 µM | EC50 (ORco [4]; listed as OrcoRAM2): 100 µM

C=CC(C)(O)CCC=C(C)C (stereo not shown) [LIN, Linalool]
Concentration of the odorant at EC20 (OR53/ORco): 105 µM | Functional response of receptor to odorant (OR53/ORco): clear responses | EC50 (OR53/ORco; OR53+ORco, agonist alone): 181 µM | pEC50 ± SE (OR53/ORco; OR53+ORco, agonist alone): 3.742 ± 0.04453 | EC50 (OR53/ORco; OR53+ORco, agonist alone, listed as linalool): ~180 µM

Cc1ccc(O)cc1 [4MP, 4-Methylphenol]
EC50 (OR1/ORco [1]): 1.2 µM | Concentration of the odorant at EC20 (OR1/ORco [1]; [7]): 0.427 µM | EC50 (OR1/ORco [5]): 2.8 µM

c1ccc2[nH]ccc2c1 [IN, Indole]
EC50 (OR2/ORco [2]): 5.5 µM | Concentration of the odorant at EC20 (OR2/ORco [2]; [7]): 3.3 µM | EC50 (OR2/ORco [6]): 3.4 µM

— paper PMC5145856 (Frontiers in Cellular Neuroscience, 2016)
